{
  "source": "PubChem BioAssay AID1259407",
  "about": "(Chemical Carcinogenesis Research Information System (CCRIS), 2018)",
  "system": "CCRIS mutagenicity, Ames/micronucleus/aberration tests",
  "assay": "CCRIS mutagenicity studies",
  "key": {"[1]": {"details": "Test System: Ames Salmonella typhimurium, Strain/Indicator: TA98, Metabolic Activation: None, Method: Preincubation"}, "[2]": {"details": "Test System: Ames Salmonella typhimurium, Strain/Indicator: TA100, Metabolic Activation: None, Method: Preincubation"}, "[3]": {"details": "Test System: Ames Salmonella typhimurium, Strain/Indicator: TA1535, Metabolic Activation: None, Method: Preincubation"}},
  "note": "The source made the active and inactive calls. How the calls were made is not given here.",
  "data": [
    {"compound": "CC(C)N=C=NC(C)C", "values": [
      {"measurement": "mutagenic call", "setting": "End Point: In vivo micronucleus, Test System: Bone marrow polychromatic erythrocytes, Species: Mouse, Strain/Sex: B6C3F1/Male, Route: Intraperitoneal", "value": "inactive; negative"},
      {"measurement": "mutagenic call", "setting": "End Point: In vivo micronucleus, Test System: Bone marrow polychromatic erythrocytes, Species: Rat, Strain/Sex: F344/N/Male, Route: Intraperitoneal", "value": "inactive; negative"},
      {"measurement": "mutagenic call", "setting": "End Point: In vivo micronucleus, Test System: Peripheral blood erythrocytes, Species: Mouse, Strain/Sex: B6C3F1/Female, Route: Dermal", "value": "active; positive; 100% mortality at 280 mg/kg"},
      {"measurement": "mutagenic call", "setting": "End Point: In vivo micronucleus, Test System: Peripheral blood erythrocytes, Species: Mouse, Strain/Sex: B6C3F1/Male, Route: Dermal", "value": "active; positive; 100% mortality at 280 mg/kg"},
      {"measurement": "mutagenic call", "setting": "End Point: In vivo micronucleus, Test System: Peripheral blood normochromatic and polychromatic erythrocytes and bone marrow polychromatic erythrocytes, Species: Mouse, Strain/Sex: B6C3F1/Male, Route: Dermal", "value": "inactive; positive (peripheral blood); negative (bone marrow)"},
      {"measurement": "mutagenic call", "setting": "End Point: In vivo micronucleus, Test System: Polychromatic erythrocytes (Bone marrow and peripheral blood), Species: Mouse, Strain/Sex: B6C3F1/Male, Route: Intraperitoneal", "value": "active; positive in peripheral blood polychromatic erythrocytes; no significant increase"},
      {"measurement": "mutagenic call", "setting": "Test System: AMES SALMONELLA TYPHIMURIUM, Strain/Indicator: TA98, Metabolic Activation: HAMSTER, LIVER, S-9, AROCLOR 1254, Method: STANDARD PLATE", "value": "inactive; negative"},
      {"measurement": "mutagenic call", "setting": "Test System: AMES SALMONELLA TYPHIMURIUM, Strain/Indicator: TA98, Metabolic Activation: NONE, Method: STANDARD PLATE", "value": "inactive; negative"},
      {"measurement": "mutagenic call", "setting": "Test System: AMES SALMONELLA TYPHIMURIUM, Strain/Indicator: TA98, Metabolic Activation: RAT, LIVER, S-9, AROCLOR 1254, Method: STANDARD PLATE", "value": "inactive; negative"},
      {"measurement": "mutagenic call", "setting": "Test System: AMES SALMONELLA TYPHIMURIUM, Strain/Indicator: TA100, Metabolic Activation: HAMSTER, LIVER, S-9, AROCLOR 1254, Method: STANDARD PLATE", "value": "inactive; negative"},
      {"measurement": "mutagenic call", "setting": "Test System: AMES SALMONELLA TYPHIMURIUM, Strain/Indicator: TA100, Metabolic Activation: NONE, Method: STANDARD PLATE", "value": "inactive; negative"},
      {"measurement": "mutagenic call", "setting": "Test System: AMES SALMONELLA TYPHIMURIUM, Strain/Indicator: TA100, Metabolic Activation: RAT, LIVER, S-9, AROCLOR 1254, Method: STANDARD PLATE", "value": "inactive; negative"},
      {"measurement": "mutagenic call", "setting": "Test System: AMES SALMONELLA TYPHIMURIUM, Strain/Indicator: TA1535, Metabolic Activation: HAMSTER, LIVER, S-9, AROCLOR 1254, Method: STANDARD PLATE", "value": "inactive; negative"},
      {"measurement": "mutagenic call", "setting": "Test System: AMES SALMONELLA TYPHIMURIUM, Strain/Indicator: TA1535, Metabolic Activation: NONE, Method: STANDARD PLATE", "value": "inactive; negative"},
      {"measurement": "mutagenic call", "setting": "Test System: AMES SALMONELLA TYPHIMURIUM, Strain/Indicator: TA1535, Metabolic Activation: RAT, LIVER, S-9, AROCLOR 1254, Method: STANDARD PLATE", "value": "inactive; negative"},
      {"measurement": "mutagenic call", "setting": "Test System: AMES SALMONELLA TYPHIMURIUM, Strain/Indicator: TA1537, Metabolic Activation: HAMSTER, LIVER, S-9, AROCLOR 1254, Method: STANDARD PLATE", "value": "inactive; negative"},
      {"measurement": "mutagenic call", "setting": "Test System: AMES SALMONELLA TYPHIMURIUM, Strain/Indicator: TA1537, Metabolic Activation: NONE, Method: STANDARD PLATE", "value": "inactive; negative"},
      {"measurement": "mutagenic call", "setting": "Test System: AMES SALMONELLA TYPHIMURIUM, Strain/Indicator: TA1537, Metabolic Activation: RAT, LIVER, S-9, AROCLOR 1254, Method: STANDARD PLATE", "value": "inactive; negative"},
      {"measurement": "mutagenic call", "setting": "Test System: AMES SALMONELLA TYPHIMURIUM, Strain/Indicator: TA1538, Metabolic Activation: HAMSTER, LIVER, S-9, AROCLOR 1254, Method: STANDARD PLATE", "value": "inactive; negative"},
      {"measurement": "mutagenic call", "setting": "Test System: AMES SALMONELLA TYPHIMURIUM, Strain/Indicator: TA1538, Metabolic Activation: NONE, Method: STANDARD PLATE", "value": "inactive; negative"},
      {"measurement": "mutagenic call", "setting": "Test System: AMES SALMONELLA TYPHIMURIUM, Strain/Indicator: TA1538, Metabolic Activation: RAT, LIVER, S-9, AROCLOR 1254, Method: STANDARD PLATE", "value": "inactive; negative"},
      {"measurement": "mutagenic call", "setting": "Test System: Ames Salmonella typhimurium, Strain/Indicator: TA97, Metabolic Activation: None, Method: Preincubation", "value": "inactive; negative"},
      {"measurement": "mutagenic call", "setting": "Test System: Ames Salmonella typhimurium, Strain/Indicator: TA97, Metabolic Activation: Rat, liver, S-9, Aroclor 1254, Method: Preincubation", "value": "inactive; negative"},
      {"measurement": "mutagenic call", "setting": "Test System: Ames Salmonella typhimurium, Strain/Indicator: TA97, Metabolic Activation: Syrian hamster, liver, S-9, Aroclor 1254, Method: Preincubation", "value": "inactive; negative"},
      {"measurement": "mutagenic call", "setting": "[1]", "value": "inactive; negative"},
      {"measurement": "mutagenic call", "setting": "Test System: Ames Salmonella typhimurium, Strain/Indicator: TA98, Metabolic Activation: Rat, liver, S-9, Aroclor 1254, Method: Preincubation", "value": "inactive; negative"},
      {"measurement": "mutagenic call", "setting": "Test System: Ames Salmonella typhimurium, Strain/Indicator: TA98, Metabolic Activation: Syrian hamster, liver, S-9, Aroclor 1254, Method: Preincubation", "value": "inactive; negative"},
      {"measurement": "mutagenic call", "setting": "[2]", "value": "inactive; negative"},
      {"measurement": "mutagenic call", "setting": "Test System: Ames Salmonella typhimurium, Strain/Indicator: TA100, Metabolic Activation: Rat, liver, S-9, Aroclor 1254, Method: Preincubation", "value": "inactive; negative"},
      {"measurement": "mutagenic call", "setting": "Test System: Ames Salmonella typhimurium, Strain/Indicator: TA100, Metabolic Activation: Syrian hamster, liver, S-9, Aroclor 1254, Method: Preincubation", "value": "inactive; negative"},
      {"measurement": "mutagenic call", "setting": "[3]", "value": "inactive; negative"},
      {"measurement": "mutagenic call", "setting": "Test System: Ames Salmonella typhimurium, Strain/Indicator: TA1535, Metabolic Activation: Rat, liver, S-9, Aroclor 1254, Method: Preincubation", "value": "inactive; negative"},
      {"measurement": "mutagenic call", "setting": "Test System: Ames Salmonella typhimurium, Strain/Indicator: TA1535, Metabolic Activation: Syrian hamster, liver, S-9, Aroclor 1254, Method: Preincubation", "value": "inactive; negative"},
      {"measurement": "mutagenic call", "setting": "Test System: MOUSE LYMPHOMA, Strain/Indicator: L5178Y (TK+/TK-), Metabolic Activation: NONE, Method: SUSPENSION/PLATE", "value": "active; positive. reevaluation of results: positive"},
      {"measurement": "mutagenic call", "setting": "Test System: MOUSE LYMPHOMA, Strain/Indicator: L5178Y (TK+/TK-), Metabolic Activation: RAT, LIVER, S-9, AROCLOR 1254, Method: SUSPENSION/PLATE", "value": "active; positive. reevaluation of results: positive"}
    ]},
    {"compound": "O=C1C(Cl)=C(Cl)C(=O)C(Cl)=C1Cl", "values": [
      {"measurement": "mutagenic call", "setting": "End Point: In vitro chromosomal aberrations, Test System: Chinese hamster lung (CHL/IU) cells, Metabolic Activation: Rat, Liver, S9, Phenobarbital and 5,6-benzoflavone", "value": "active; positive (structural changes and ploidy)"},
      {"measurement": "mutagenic call", "setting": "Test System: AMES SALMONELLA TYPHIMURIUM, Strain/Indicator: TA98, Metabolic Activation: NONE, Method: PREINCUBATION", "value": "inactive; negative"},
      {"measurement": "mutagenic call", "setting": "Test System: AMES SALMONELLA TYPHIMURIUM, Strain/Indicator: TA100, Metabolic Activation: NONE, Method: PREINCUBATION", "value": "inactive; negative"},
      {"measurement": "mutagenic call", "setting": "Test System: AMES SALMONELLA TYPHIMURIUM, Strain/Indicator: TA100, Metabolic Activation: RAT, LIVER, S-9, PHENOBARBITAL AND 5,6-BENZOFLAVONE, Method: PREINCUBATION", "value": "active; positive"},
      {"measurement": "mutagenic call", "setting": "Test System: AMES SALMONELLA TYPHIMURIUM, Strain/Indicator: TA102, Metabolic Activation: NONE, Method: PREINCUBATION", "value": "inactive; negative"},
      {"measurement": "mutagenic call", "setting": "Test System: AMES SALMONELLA TYPHIMURIUM, Strain/Indicator: TA102, Metabolic Activation: RAT, LIVER, S-9, PHENOBARBITAL AND 5,6-BENZOFLAVONE, Method: PREINCUBATION", "value": "inactive; negative"},
      {"measurement": "mutagenic call", "setting": "Test System: AMES SALMONELLA TYPHIMURIUM, Strain/Indicator: TA2637, Metabolic Activation: NONE, Method: PREINCUBATION", "value": "inactive; negative"},
      {"measurement": "mutagenic call", "setting": "Test System: AMES SALMONELLA TYPHIMURIUM, Strain/Indicator: TA2637, Metabolic Activation: RAT, LIVER, S-9, PHENOBARBITAL AND 5,6-BENZOFLAVONE, Method: PREINCUBATION", "value": "inactive; negative"},
      {"measurement": "mutagenic call", "setting": "[1]", "value": "inactive; negative"},
      {"measurement": "mutagenic call", "setting": "Test System: Ames Salmonella typhimurium, Strain/Indicator: TA98, Metabolic Activation: Rat, Liver, S9, Sodium phenobarbital and 5,6-benzoflavone (10%), Method: Preincubation", "value": "inactive; negative"},
      {"measurement": "mutagenic call", "setting": "[2]", "value": "inactive; negative"},
      {"measurement": "mutagenic call", "setting": "Test System: Ames Salmonella typhimurium, Strain/Indicator: TA100, Metabolic Activation: Rat, Liver, S9, Sodium phenobarbital and 5,6-benzoflavone (10%), Method: Preincubation", "value": "active; positive"},
      {"measurement": "mutagenic call", "setting": "[3]", "value": "inactive; negative"},
      {"measurement": "mutagenic call", "setting": "Test System: Ames Salmonella typhimurium, Strain/Indicator: TA1535, Metabolic Activation: Rat, Liver, S9, Sodium phenobarbital and 5,6-benzoflavone (10%), Method: Preincubation", "value": "inactive; negative"},
      {"measurement": "mutagenic call", "setting": "Test System: Ames Salmonella typhimurium, Strain/Indicator: TA1537, Metabolic Activation: None, Method: Preincubation", "value": "inactive; negative"},
      {"measurement": "mutagenic call", "setting": "Test System: Ames Salmonella typhimurium, Strain/Indicator: TA1537, Metabolic Activation: Rat, Liver, S9, Sodium phenobarbital and 5,6-benzoflavone (10%), Method: Preincubation", "value": "inactive; negative"},
      {"measurement": "mutagenic call", "setting": "Test System: E. coli, Strain/Indicator: WP2uvrA/pKM101, Metabolic Activation: None, Method: Preincubation", "value": "inactive; negative"},
      {"measurement": "mutagenic call", "setting": "Test System: E. coli, Strain/Indicator: WP2uvrA/pKM101, Metabolic Activation: Rat, Liver, S9, Sodium Phenobarbital and 5,6-benzoflavone, Method: Preincubation", "value": "inactive; negative"}
    ]}
  ]
}
